Columns and labels:
[1] = biological target: Butyrylcholinesterase (BuChE) (Equus caballus, UniProt P81908); experiment: Ellman's assay, purified enzyme from equine serum; assay type: biochemical
[2] = biological target: Acetylcholinesterase (AChE) (Electrophorus electricus, UniProt O42275); experiment: Ellman's assay, purified enzyme from electric eel; assay type: biochemical
Acetylcholinesterase (AChE), sequence (O42275 24-633): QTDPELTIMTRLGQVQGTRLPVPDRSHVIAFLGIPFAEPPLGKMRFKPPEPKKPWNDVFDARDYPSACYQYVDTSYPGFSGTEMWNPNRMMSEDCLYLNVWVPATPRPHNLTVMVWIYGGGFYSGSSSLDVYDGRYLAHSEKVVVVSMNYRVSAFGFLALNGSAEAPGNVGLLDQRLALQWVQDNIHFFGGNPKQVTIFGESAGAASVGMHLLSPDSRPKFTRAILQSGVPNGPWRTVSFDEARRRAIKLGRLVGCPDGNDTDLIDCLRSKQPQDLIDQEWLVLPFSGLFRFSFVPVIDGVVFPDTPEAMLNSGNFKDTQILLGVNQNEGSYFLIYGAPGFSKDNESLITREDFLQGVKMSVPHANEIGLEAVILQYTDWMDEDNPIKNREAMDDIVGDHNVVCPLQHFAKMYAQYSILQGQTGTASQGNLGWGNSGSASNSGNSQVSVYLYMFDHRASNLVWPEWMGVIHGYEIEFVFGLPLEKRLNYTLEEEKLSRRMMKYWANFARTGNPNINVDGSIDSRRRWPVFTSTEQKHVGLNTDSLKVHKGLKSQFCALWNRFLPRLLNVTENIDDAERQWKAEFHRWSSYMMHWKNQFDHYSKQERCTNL

Butyrylcholinesterase (BuChE), sequence (P81908 whole entry): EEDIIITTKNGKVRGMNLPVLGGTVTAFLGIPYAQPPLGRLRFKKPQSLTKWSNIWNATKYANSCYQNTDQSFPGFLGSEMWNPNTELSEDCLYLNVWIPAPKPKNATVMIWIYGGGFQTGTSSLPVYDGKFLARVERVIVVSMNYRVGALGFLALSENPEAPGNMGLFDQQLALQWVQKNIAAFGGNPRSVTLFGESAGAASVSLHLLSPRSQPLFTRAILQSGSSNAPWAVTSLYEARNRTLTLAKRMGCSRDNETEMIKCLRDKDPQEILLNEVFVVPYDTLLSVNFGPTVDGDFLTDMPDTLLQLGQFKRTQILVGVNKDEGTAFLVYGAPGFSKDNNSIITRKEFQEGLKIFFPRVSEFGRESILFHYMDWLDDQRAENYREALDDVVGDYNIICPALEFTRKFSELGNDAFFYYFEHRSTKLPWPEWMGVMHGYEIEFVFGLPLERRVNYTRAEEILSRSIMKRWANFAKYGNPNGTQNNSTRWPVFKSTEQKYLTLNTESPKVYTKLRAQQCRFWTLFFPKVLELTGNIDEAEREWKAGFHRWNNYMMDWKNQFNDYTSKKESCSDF

## COc1cc2ccc(=O)oc2cc1O [scopoletin, 6-methoxy-7-hydroxycoumarin]
[1]
  IC50: 9.11 µM
[2]
  IC50: 5.34 µM
